Laboratory results reported in paper PMC4428790, “In Silico and In Vitro Analysis of Bacoside A Aglycones and Its Derivatives as the Constituents Responsible for the Cognitive Effects of Bacopa monnieri” (PLoS ONE, 2015).

Assays:
[1] = target: T1, 5-HT2A receptor (recombinant human membrane, CHO cells) (Homo sapiens, UniProt P28223); test: radioligand receptor binding assay, [3H]-ketanserin displacement; conditions: for IC50: mean ± S.D., 1 nM [3H]-ketanserin, assayed up to 100 or 30 μM
T1 construct: purchased Perkin Elmer Lot no; 1813092; host or cells: CHO cells
T1 sequence (P28223 whole entry): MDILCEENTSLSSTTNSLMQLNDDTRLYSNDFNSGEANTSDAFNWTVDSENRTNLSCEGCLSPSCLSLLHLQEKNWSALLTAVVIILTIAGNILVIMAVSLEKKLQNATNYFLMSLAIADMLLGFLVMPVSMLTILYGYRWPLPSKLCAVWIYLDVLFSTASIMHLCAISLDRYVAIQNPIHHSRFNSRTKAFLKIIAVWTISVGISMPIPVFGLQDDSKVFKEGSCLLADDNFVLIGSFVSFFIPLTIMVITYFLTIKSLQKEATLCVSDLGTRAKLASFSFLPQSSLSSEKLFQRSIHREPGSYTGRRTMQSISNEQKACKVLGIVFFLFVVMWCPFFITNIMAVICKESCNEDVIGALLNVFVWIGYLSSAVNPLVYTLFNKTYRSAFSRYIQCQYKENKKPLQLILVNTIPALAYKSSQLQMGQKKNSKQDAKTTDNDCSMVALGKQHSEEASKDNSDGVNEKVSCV
Description: (§1) Recombinant human membrane preparations for M1 (expressed in CHO cells; Lot no. 1706299), 5-HT1A (HEK293 cells; no. 1812363), 5-HT2A (CHO cells; no. 1813092), D1 (L cells; no. 1840059), and D2S (CHO cells; no. 1820984) receptors and MicroScint-O scintillation cocktail were procured from Perkin Elmer (Waltham, MA, USA). [^3H] N-methylscopolamine (NMS), [^3H] 8-OH-DPAT, [^3H] ketanserin, [^3H] SCH 23390 and [^3H] methylspiperone were purchased from American Radiolabeled Chemicals (St. Louis, MO, USA). […] (DTNB) and donepezil hydrochloride were obtained from Sigma-Aldrich (St. Louis, MO, USA). Bacoside A, bacoside A3, bacopaside II, bacopaside X and bacopasaponin C were purchased from Chromadex Inc. (Irvine, CA, USA). Jujubogenin and ebelin lactone were purchased from Shanghai IS Chemical Technology Ltd. (Jinshan, Shanghai, China). Unless stated otherwise, all other reagents of analytical grade were obtained through standard commercial sources.
(§2) The assay was performed according to the methods published previously. […] Pseudojujubogenin and bacogenin A1 were not available for purchase at the time when the work was carried out. All compounds were dissolved in dimethylsulfoxide (DMSO) and the solvent was kept below 1% (v/v) in the final reaction mixture. Briefly, in each well, 100 μl of the respective membrane preparations (μg/well), 50 μl of the respective [^3H]-ligand and 50 μl of the test compounds were added and the total assay reaction volume was made up to 200 μl by adding assay buffer. […] The reaction mixture was incubated for 60 or 120 min at room temperature or 37°C for the respective membranes. The reaction was stopped by rapid filtration onto GF/C filter plates (presoaked in 0.5% polyethyleneimine) using FilterMate (Perkin Elmer) cell harvester and washed with wash buffer (200 μl for 5 times) to remove unbound ligands. The filter plates were dried at 60°C for 15 minutes before the application of Bottom Seal and addition of 50 μl MicroScint-O scintillation cocktail. The top of the plate was then sealed with TopSeal A. Radioactivity (CPM) was counted using TopCount NXT microplate scintillation counter (Perkin-Elmer). The data were analyzed by non-linear regression using Prism Version 5.0 (GraphPad Inc., San Diego CA, USA). The percentage of specific binding of radioligand in the presence of test compounds was calculated using the standard data reduction algorithm: ([B-NSB] / [TB-NSB]) × 100) where B is the binding in the presence of test compounds, NSB is the non-specific binding in the presence of excess reference ligand and TB is the total binding. K i values were calculated from the IC50 values using the Cheng-Prusoff equation [26].

[2] = target: T2, D1 receptor (recombinant human membrane, L cells) (Homo sapiens, UniProt P21728); test: radioligand receptor binding assay, [3H]-SCH 23390 displacement; conditions: for IC50: mean ± S.D., 0.2 nM [3H]-SCH 23390, assayed up to 100 or 30 μM
T2 construct: purchased Perkin Elmer Lot no; 1840059; host or cells: L cells
T2 sequence (P21728 whole entry): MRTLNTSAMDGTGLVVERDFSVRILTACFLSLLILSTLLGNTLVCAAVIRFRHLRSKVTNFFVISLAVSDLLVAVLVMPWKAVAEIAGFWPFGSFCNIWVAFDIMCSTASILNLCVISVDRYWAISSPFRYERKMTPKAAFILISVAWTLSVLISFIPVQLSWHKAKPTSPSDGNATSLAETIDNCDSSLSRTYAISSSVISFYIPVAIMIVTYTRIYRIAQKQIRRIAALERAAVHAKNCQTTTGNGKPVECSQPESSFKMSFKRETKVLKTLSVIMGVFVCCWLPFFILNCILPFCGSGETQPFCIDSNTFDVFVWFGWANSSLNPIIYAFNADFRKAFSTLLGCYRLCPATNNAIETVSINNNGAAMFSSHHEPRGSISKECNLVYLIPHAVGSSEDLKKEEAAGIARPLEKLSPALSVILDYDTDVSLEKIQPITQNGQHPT
Description: as §1, §2

[3] = target: T3, D2S receptor (recombinant human membrane, CHO cells) (Homo sapiens, UniProt P14416); test: radioligand receptor binding assay, [3H]-methylspiperone displacement; conditions: mean ± S.D.; 0.2 nM [3H]-methylspiperone; assayed up to 100 or 30 μM; read-out: IC50 D2
T3 construct: purchased Perkin Elmer Lot no; 1820984; host or cells: CHO cells
T3 sequence (P14416 1-414 isoform P14416-2): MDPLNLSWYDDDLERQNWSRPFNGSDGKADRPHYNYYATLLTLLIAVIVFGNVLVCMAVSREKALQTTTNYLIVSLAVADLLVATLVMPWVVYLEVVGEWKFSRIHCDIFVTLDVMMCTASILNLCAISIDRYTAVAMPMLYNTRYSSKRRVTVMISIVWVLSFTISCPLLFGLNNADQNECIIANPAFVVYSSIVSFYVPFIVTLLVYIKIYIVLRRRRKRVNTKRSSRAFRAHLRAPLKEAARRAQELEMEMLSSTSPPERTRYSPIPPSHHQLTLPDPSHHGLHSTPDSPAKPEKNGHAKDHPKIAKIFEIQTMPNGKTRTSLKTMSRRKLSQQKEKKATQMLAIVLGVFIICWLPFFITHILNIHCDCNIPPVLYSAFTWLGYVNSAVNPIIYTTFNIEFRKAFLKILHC
Description: as §1, §2

[4] = target: T4, M1 receptor (recombinant human membrane, CHO cells) (Homo sapiens, UniProt P11229); test: radioligand receptor binding assay, [3H]-NMS displacement; conditions: for IC50: mean ± S.D., 0.1 nM [3H]-NMS, assayed up to 100 or 30 μM
T4 construct: purchased Perkin Elmer Lot no; 1706299; host or cells: CHO cells
T4 sequence (P11229 1-460): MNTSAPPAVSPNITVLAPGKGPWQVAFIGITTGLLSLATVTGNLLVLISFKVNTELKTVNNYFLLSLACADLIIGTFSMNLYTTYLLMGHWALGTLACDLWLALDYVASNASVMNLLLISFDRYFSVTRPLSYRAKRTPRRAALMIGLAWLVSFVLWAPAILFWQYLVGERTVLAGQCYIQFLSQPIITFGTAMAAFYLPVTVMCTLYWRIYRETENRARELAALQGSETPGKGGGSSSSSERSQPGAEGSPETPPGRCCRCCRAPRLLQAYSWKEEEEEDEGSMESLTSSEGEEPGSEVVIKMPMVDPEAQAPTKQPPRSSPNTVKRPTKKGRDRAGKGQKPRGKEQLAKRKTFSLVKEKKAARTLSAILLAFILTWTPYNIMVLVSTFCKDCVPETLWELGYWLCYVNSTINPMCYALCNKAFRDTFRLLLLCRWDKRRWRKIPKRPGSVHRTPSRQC
Description: as §1, §2

[5] = target: T5, 5-HT1A receptor (recombinant human membrane, HEK293 cells) (Homo sapiens, UniProt P08908); test: radioligand receptor binding assay, [3H]-8-OH-DPAT displacement; conditions: mean ± S.D.; 2 nM [3H]-8-OH-DPAT; assayed up to 100 or 30 μM
T5 construct: purchased Perkin Elmer Lot no; 1812363; host or cells: HEK293 cells
T5 sequence (P08908 1-422): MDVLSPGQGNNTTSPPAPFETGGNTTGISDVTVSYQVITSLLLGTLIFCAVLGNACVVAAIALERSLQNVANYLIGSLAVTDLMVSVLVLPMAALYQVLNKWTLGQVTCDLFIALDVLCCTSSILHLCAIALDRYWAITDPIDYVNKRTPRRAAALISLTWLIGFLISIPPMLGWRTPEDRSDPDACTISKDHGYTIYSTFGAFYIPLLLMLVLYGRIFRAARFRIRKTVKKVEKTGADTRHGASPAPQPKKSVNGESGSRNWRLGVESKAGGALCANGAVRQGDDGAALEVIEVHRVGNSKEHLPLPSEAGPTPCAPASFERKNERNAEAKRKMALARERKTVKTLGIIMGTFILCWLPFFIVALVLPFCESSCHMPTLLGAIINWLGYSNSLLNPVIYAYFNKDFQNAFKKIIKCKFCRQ
Description: as §1, §2

M1 = target: M1; parameters: method as in PMID 24979399; conditions: M1 agonists; cited from earlier work
[6] = from IC50 by Cheng-Prusoff equation

Row | Structure (SMILES) | IC50 [1] [µM] | IC50 [2] [µM] | IC50 [3] [µM] | IC50 [4] [µM] | IC50 [5] [µM] | Ki [2, 6] [µM] | Ki [1, 6] [µM] | Ki [4, 6] [µM] | Ki (M1) [µM]
1 | CC(C)=C[C@@H]1CO[C@]23C[C@]4(CO2)[C@H](CC[C@@H]2[C@@]5(C)CC[C@H](O[C@@H]6OC[C@H](O)[C@H](O[C@@H]7O[C@H](CO)[C@@H](O)[C@H](O)[C@H]7O)[C@H]6O[C@@H]6O[C@@H](CO)[C@H](O)[C@H]6O)C(C)(C)[C@@H]5CC[C@]24C)[C@H]3[C@@]1(C)O [Bacopasaponin C, bacopasaponin C] | > 100 | > 100 | > 100 | > 100 | > 100 | – | – | – | –
2 | CC(C)=CC1COC23CC4(CO2)C(CCC2C5(C)CCC(OC6OC(CO)C(O)C(OC7OC(CO)C(O)C(O)C7O)C6OC6OC(CO)C(O)C6O)C(C)(C)C5CCC24C)C3C1(C)O (stereo not shown) [Bacopaside II, bacopaside II] | > 30 | > 30 | > 30 | > 30 | > 30 | – | – | – | –
3 | CC(C)=C[C@H]1C[C@](C)(O)[C@@H]2[C@H]3CC[C@@H]4[C@@]5(C)CC[C@H](O[C@@H]6OC[C@H](O)[C@H](O[C@@H]7O[C@H](CO)[C@@H](O)[C@H](O)[C@H]7O)[C@H]6O[C@@H]6O[C@@H](CO)[C@H](O)[C@H]6O)C(C)(C)[C@@H]5CC[C@@]4(C)[C@@]34CO[C@@]2(C4)O1 [Bacopaside X, bacopaside X] | > 100 | 19.5 ± 3.07 | > 100 | > 100 | > 100 | 9.06 | – | – | –
4 | CC(C)=C[C@H]1C[C@](C)(O)[C@@H]2[C@H]3CC[C@@H]4[C@@]5(C)CC[C@H](O[C@@H]6O[C@H](CO)[C@@H](O)[C@H](O[C@@H]7O[C@H](CO)[C@@H](O)[C@H](O)[C@H]7O)[C@H]6O[C@@H]6O[C@@H](CO)[C@H](O)[C@H]6O)C(C)(C)[C@@H]5CC[C@@]4(C)[C@@]34CO[C@@]2(C4)O1 [Bacoside A3, bacoside A3] | > 100 | > 100 | > 100 | > 100 | > 100 | – | – | – | –
5 | CC(C)=CC=CC(C)=CC1CCC2C3(C)CCC(O)C(C)(C)C3CCC2(C)C12COC(=O)C2 (stereo not shown) [Ebelin Lactone, ebelin lactone] | 14.5 ± 4.98 | > 30 | > 30 | 0.8 ± 0.19 | > 30 | – | 4.21 | 0.45 | –
6 | CC(C)=CC1CC(C)(O)C2C3CCC4C5(C)CCC(O)C(C)(C)C5CCC4(C)C34COC2(C4)O1 (stereo not shown) [Jujubogenin, jujubogenin] | > 30 | > 30 | > 30 | > 30 | > 30 | – | – | – | –
7 | CC(=O)OCC[N+](C)(C)C [acetylcholine] | – | – | – | – | – | – | – | – | 59
